IC50 data for 17 compounds are collected here from patent US20220257774A1, “AROMATIC AMINE AR AHD BET TARGETING PROTEIN DEGRADATION CHIMERA COMPOUND AND USE” (HINOVA PHARMACEUTICALS INC., priority 2019, published 2022).

The structures appear in SMILES notation. Where two headings read alike, the source gives them in different places. A value given as a limit tells only on which side of the number the result lay.

One assay has as its system LNCaP/AR cells. The experiment in a line: Inhibition of the proliferation of LNCap/AR cells (CCK-8). The note with it: read-out: LNCap/AR IC50. Type of assay: cell-based. In short, it runs like this:
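Proliferation was read by CCK-8 (OD 450 nm, 1 h) after six days of compound exposure. Cells were seeded at 1000 per well overnight, then dosed in duplicate over nine 3-fold steps with a top final concentration of 10 μM in 0.1% DMSO; IC50 was fitted from inhibition curves.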

For a further assay, the system named is 22RV1 cells. The experiment in a line: Inhibition of the proliferation of drug-resistant prostate cancer cell 22RV1 (CCK-8). It is filed as cell-based. The note with it: 22RV1 cells (enzalutamide-resistant), same method. On the procedure: (1) Experimental materials and instruments: LNCaP/AR cell line and 22RV1 cell line (provided by Sichuan Kangcheng Biotechnology Co., Ltd.) Fetal bovine serum FBS (Gibco, Cat. No. 10099-141) 0.01M PBS (Biosharp, Cat. No. 162262) RIPM1640 medium (Hyclone, Cat. No. 308090.01) Penicillin-Streptomycin (Hyclone, Cat. No. SV30010) Cell counting kit-8 (Signalway Antibody, Cat. No. CP002) DMSO (Sigma, Cat. No. D5879) Centrifuge Tube, 15 ml (Excell Bio, Cat. No. CS015-0001) Cell Culture Dish, (Excell Bio, Cat. No. CS016-0128) 96-well cell culture plate (Corning, Cat. No. 3599) Microplate reader (Thermo Multiskan MK3 type)
a. Preparation of Buffer Cell culture medium: RIPM1640 medium, 10% FBS, 1% Pen Strep: PBS buffer: PBS powder was dissolved in 2 L of ultrapure water and sterilized. b. Experimental Procedures 1) LNCaP/AR cells were subcultured in cell culture media, and then the cells in good growth condition were seeded in a 96-well plate at 80 μL/well (1000 cells/well), and cultured overnight in a 37° C., 5% CO2 cell incubator. 2) The drug was prepared into a 10 mM stock solution with dimethyl sulfoxide (DMSO). Prior to use, the stock solution was diluted in a ratio of […] with DMSO, and then diluted at a 3-fold gradient to obtain 9 serial concentrations. Then, each concentration of compound was further diluted in a ratio of 1:200 with the culture medium (to ensure that the DMSO concentration in the culture system was 0.1%), and two wells were set for each concentration. 20 μL of the diluted compound solution was added to the well of the cell culture (with a final concentration of 10 μM, 3.3 μM, 1.1 μM . . . ), and then the plate was gently tapped to thoroughly mix. In addition, the experiment included 3 negative control wells only containing cells and 3 blank control wells only containing culture medium (6 wells were each added with DMSO diluted in a ratio of 1:200 with 20 μL of culture medium). c. Result Detection: 1) After culturing for 6 days, 10 μL of CCK-8 was added to each well, and the plate was further incubated for 1 h in a 37° C., 5% CO2 cell incubator. 2) The absorbance (OD value) was measured at 450 nm with a multifunctional microplate reader. 3) The data was analyzed by the Dose-response-inhibition equation in the software GraphPad Prism5, and the IC50 value was obtained. 2. Biological assay of the inhibition on the proliferation of other drug-resistant prostate cancer cells
The same test method was used to determine the inhibitory activity of the compound according to the present invention against drug-resistant prostate cancer cell 22RV1.

Setting [1] is: 144 h, LNCaP/AR cells, 6 days culture, CCK-8.
The mark [2] stands for this setting: LNCaP/AR cells, 6 days culture, CCK-8.

As for `Cc1ccc(-c2c(C)noc2C)cc1N(c1ccc(C2(C#N)CC2)cc1)C1CN(c2ccc3c(c2)C(=O)N(C2CCC(=O)NC2=O)C3=O)C1` (stereo not shown) [Compound 35, 1-(4-((5-(3,5-Dimethylisoxazol-4-yl)-2-methylphenyl)(1-(2-(2,6-dioxopiperidin-3-yl)-1,3-dioxoisoindolin-5-yl)azetidin-3-yl)amino)phenyl)cyclopropane-1-nitrile], the IC50 in the assay on LNCaP/AR cells (setting [1]) and in the assay on 22RV1 cells (Homo sapiens) was over 2000 nM in each case.

Consider `Cc1ccc(-c2c(C)noc2C)cc1N(CC1CC(Nc2cc3c(cc2F)CN(C2CCC(=O)NC2=O)C3=O)C1)c1ccc(C2(C#N)CC2)cc1` (stereo not shown) [Compound 38], for which the values for the IC50 in the assay with LNCaP/AR cells (setting [1]) and in the assay on 22RV1 cells (Homo sapiens) were over 2000 nM and 501 to 2000 nM, respectively.

For `Cc1ccc(-c2c(C)noc2C)cc1N(CCCCNc1cc2c(cc1F)C(=O)N(C1CCC(=O)NC1=O)C2=O)c1ccc(C2(C#N)CC2)cc1` (stereo not shown) [Compound 40], the IC50 in the assay on LNCaP/AR cells (setting [1]) lay in the range of 501 to 2000 nM; in the assay with 22RV1 cells (Homo sapiens), 101 to 500 nM.

On to `Cc1ccc(-c2c(C)noc2C)cc1N(CCCCNc1ccc2c(c1)C(=O)N(C1CCC(=O)NC1=O)C2=O)c1ccc(C2(C#N)CC2)cc1` (stereo not shown) [Compound 41, 1-(4-((5-(3,5-Dimethylisoxazol-4-yl)-2-methylphenyl)(4-((2-(2,6-dioxopiperidin-3-yl)-1,3-dioxoisoindolin-5-yl)amino)butyl)amino)phenyl)cyclopropane-1-nitrile], for which the IC50 is 101 to 500 nM with LNCaP/AR cells (setting [1]) and under 100 nM in the assay with 22RV1 cells (Homo sapiens).

For `Cc1ccc(-c2c(C)noc2C)cc1N(CCCCNc1cc2c(cc1F)CN(C1CCC(=O)NC1=O)C2=O)c1ccc(C2(C#N)CC2)cc1` (stereo not shown) [Compound 42, 1-(4-((5-(3,5-Dimethylisoxazol-4-yl)-2-methylphenyl)(4-((2-(2,6-dioxopiperidin-3-yl)-6-fluoro-3-oxoisoindolin-5-yl)amino)butyl)amino)phenyl)cyclopropane-1-nitrile], the figures for the IC50 in the assay with LNCaP/AR cells (setting [1]) and with 22RV1 cells (Homo sapiens) were 101 to 500 nM and 501 to 2000 nM, respectively.

As for `Cc1ccc(-c2c(C)n[nH]c2C)cc1N(CCCCCOCC(=O)N[C@H](C(=O)N1C[C@H](O)C[C@H]1C(=O)N[C@@H](C)c1ccc(-c2scnc2C)cc1)C(C)(C)C)c1ccc(C#N)c(Cl)c1` [Compound 44, (2S,4R)-1-((S)-2-(2-((5-((3-chloro-4-cyanophenyl)(5-(3,5-dimethyl-1H-pyrazol-4-yl)-2-methylphenyl)amino)pentyl)oxy)acetylamino)-3,3-dimethylbutyryl)-4-hydroxy-N—((S)-1-(4-(4-methylthiazol-5-yl)phenyl)ethyl)pyrrolidinyl-2-formamide], the IC50 was 101 to 500 nM in the assay on LNCaP/AR cells (LNCaP/AR, 144 h) and over 2000 nM in the assay on 22RV1 cells (Homo sapiens).

Regarding `CC(=O)O[C@@H]1C[C@@H](C(=O)N[C@@H](C)c2ccc(-c3scnc3C)cc2)N(C(=O)[C@@H](NC(=O)COCCCCCN(c2ccc(C#N)c(Cl)c2)c2cc(-c3c(C)n[nH]c3C)ccc2C)C(C)(C)C)C1` [Compound 45], the IC50 in the assay with LNCaP/AR cells (LNCaP/AR, 144 h) was 501 to 2000 nM; with 22RV1 cells (Homo sapiens), over 2000 nM.

On to `Cc1ccc(-c2c(C)noc2C)cc1N(CCCCCCNc1ccc2c(c1)CN(C1CCC(=O)NC1=O)C2=O)c1ccc(C2(C#N)CC2)cc1` (stereo not shown) [Compound 61, 1-(4-((5-(3,5-dimethylisoxazol-4-yl)-2-methylphenyl)(6-((2-(2,6-dioxopiperidin-3-yl)-1-oxoisoindolin-5-yl)amino)hexyl)amino)phenyl)cyclopropane-1-nitrile], for which the IC50 in the assay on LNCaP/AR cells (setting [1]) and in the assay on 22RV1 cells (Homo sapiens) was under 100 nM each time.

As to `Cc1ccc(-c2c(C)noc2C)cc1N(CCCCNc1ccc2c(c1)CN(C1CCC(=O)NC1=O)C2=O)c1ccc(C2(C#N)CC2)cc1` (stereo not shown) [Compound 62, 1-(4-((5-(3,5-dimethylisoxazol-4-yl)-2-methylphenyl)(4-((2-(2,6-dioxopiperidin-3-yl)-1-oxoisoindolin-5-yl)amino)butyl)amino)phenyl)cyclopropane-1-nitrile], the IC50 in the assay with LNCaP/AR cells (setting [1]) and in the assay with 22RV1 cells (Homo sapiens) was under 100 nM each time.

Turning to `Cc1ccc(-c2c(C)noc2C)cc1N(CCN1CCN(c2ccc3c(c2)C(=O)N(C2CCC(=O)NC2=O)C3=O)CC1)c1ccc(C2(C#N)CC2)cc1` (stereo not shown) [Compound 64, 1-(4-((5-(3,5-Dimethylisoxazol-4-yl)-2-methylphenyl)(2-(4-(2-(2,6-dioxopiperidin-3-yl)-1,3-dioxoisoindolin-5-yl)piperazin-1-yl)ethyl)amino)phenyl)cyclopropane-1-nitrile], the values for the IC50 with LNCaP/AR cells (setting [1]) and in the assay with 22RV1 cells (Homo sapiens) were 501 to 2000 nM and under 100 nM, respectively.

Turning to `Cc1ccc(-c2c(C)noc2C)cc1N(CCN1CCN(c2ccc3c(c2)CN(C2CCC(=O)NC2=O)C3=O)CC1)c1ccc(C2(C#N)CC2)cc1` (stereo not shown) [Compound 65, 1-(4-((5-(3,5-dimethylisoxazol-4-yl)-2-methylphenyl)(2-(4-(2-(2,6-dioxopiperidin-3-yl)-1-oxoisoindolin-5-yl)piperazin-1-yl)ethyl)amino)phenyl)cyclopropane-1-nitrile], the IC50 is 501 to 2000 nM in the assay with LNCaP/AR cells (setting [1]) and 101 to 500 nM with 22RV1 cells (Homo sapiens).

`Cc1ccc(-c2c(C)noc2C)cc1N(c1ccc(C2(C#N)CC2)cc1)C1CN(C2CCN(c3ccc4c(c3)C(=O)N(C3CCC(=O)NC3=O)C4=O)CC2)C1` (stereo not shown) [Compound 66]: the IC50 in the assay on LNCaP/AR cells (setting [1]) was 101 to 500 nM; in the assay with 22RV1 cells (Homo sapiens) it was under 100 nM.

Consider `Cc1ccc(-c2c(C)noc2C)cc1N(c1ccc(C2(C#N)CC2)cc1)C1CN(CC2CN(c3ccc4c(c3)C(=O)N(C3CCC(=O)NC3=O)C4=O)C2)C1` (stereo not shown) [Compound 67, 1-(4-((5-(3,5-dimethylisoxazol-4-yl)-2-methylphenyl)(1-((1-(2-(2,6-dioxopiperidin-3-yl)-1,3-dioxoisoindolin-5-yl)azetidin-3-yl)methyl)azetidine-3-yl)amino)phenyl)cyclopropane-1-carbonitrile], for which the results for the IC50 with LNCaP/AR cells (setting [1]) and in the assay with 22RV1 cells (Homo sapiens) were 101 to 500 nM and under 100 nM, respectively.

For the compound `Cc1ccc(-c2c(C)noc2C)cc1N(c1ccc(C2(C#N)CC2)cc1)C1CN(C2CC(Nc3cc4c(cc3F)C(=O)N([C@H]3CCC(=O)NC3=O)C4)C2)C1` (stereo partly shown) [Compound 69, 1-(4-((5-(3,5-dimethylisoxazol-4-yl)-2-methylphenyl)(1-((1 s,3s)-3-((2-(2,6-dioxopiperidin-3-yl)-6-fluoro-1-oxoisoindolin-5-yl)amino)cyclobutyl)azetidin-3-yl)amino)phenyl)cyclopropane-1-nitrile], the IC50 in the assay with LNCaP/AR cells (setting [2]) and in the assay on 22RV1 cells was over 2000 nM each time.

Turning to `Cc1ccc(-c2c(C)noc2C)cc1N(CC1CN([C@H]2C[C@@H](Nc3cc4c(cc3F)C(=O)N(C3CCC(=O)NC3=O)C4=O)C2)C1)c1ccc(C2(C#N)CC2)cc1` (stereo partly shown) [Compound 71, 1-(4-((5-(3,5-dimethylisoxazol-4-yl)-2-methylphenyl)((1-((1s,3s)-3-((2-(2,6-dioxopiperidin-3-yl)-6-fluoro-1,3-dioxoisoindolin-5-yl)amino)cyclobutyl)azetidin-3-yl)methyl)amino)phenyl)cyclopropane-1-nitrile], the IC50 in the assay with LNCaP/AR cells (setting [1]) and in the assay with 22RV1 cells (Homo sapiens) was over 2000 nM in each case.

Turning to `Cc1ccc(-c2c(C)noc2C)cc1N(CC1CN([C@H]2C[C@H](Nc3cc4c(cc3F)C(=O)N(C3CCC(=O)NC3=O)C4=O)C2)C1)c1ccc(C2(C#N)CC2)cc1` (stereo partly shown) [Compound 72, 1-(4-((5-(3,5-dimethylisoxazol-4-yl)-2-methylphenyl][(1-((1r,3r)-3-((2-(2,6-dioxopiperidin-3-yl)-6-fluoro-1,3-dioxoisoindolin-5-yl)amino)cyclobutyl)azetidin-3-yl)methyl)amino)phenyl)cyclopropane-1-nitrile], the IC50 with LNCaP/AR cells (setting [1]) and in the assay on 22RV1 cells (Homo sapiens) was over 2000 nM each time.

Take `Cc1ccc(-c2c(C)noc2C)cc1N(c1ccc(C2(C#N)CC2)cc1)C1CN(C2CCC(Nc3cc4c(cc3F)C(=O)N(C3CCC(=O)NC3=O)C4=O)CC2)C1` (stereo not shown) [Compound 73, 1-(4-((5-(3,5-dimethylisoxazol-4-yl)-2-methylphenyl)(1-((1s,4s)-4-((2-(2,6-dioxopiperidin-3-yl)-6-fluoro-1,3-dioxoisoindolin-5-yl)amino)cyclohexyl)azetidin-3-yl)amino)phenyl)cyclopropane-1-nitrile]: the IC50 with LNCaP/AR cells (setting [2]) and with 22RV1 cells was over 2000 nM in each case.
